Here are results for 24 compounds from US5945440A, “Indolocarbazole imides and the use thereof” (priority 1992, dated 1999).

One assay addresses protein kinase C. Description: inhibition of protein kinase C, enzyme test. The settings on record: read-out: inhibition of the protein kinases, C-kinase IC50. In kind it is biochemical. How it is done:
In order to ascertain whether it is a question of a selective inhibition of MLC kinase, the compounds were also investigated in other enzyme tests for protein kinase, including tests for protein kinase C. The results from the PKC test are also given in the following Table I. Furthermore, the Table contains selectivity factors which were calculated by the determination of the ratios of the IC50 values.

Assay [1] deals with T1, MLC kinase (myosin light-chain kinase) (Gallus gallus, UniProt P11799).
T1 construct: MLC kinase was purified from chicken stomach; from tissue; host or cells: chicken stomach (gizzard smooth muscle)
T1 sequence (P11799 935-1906): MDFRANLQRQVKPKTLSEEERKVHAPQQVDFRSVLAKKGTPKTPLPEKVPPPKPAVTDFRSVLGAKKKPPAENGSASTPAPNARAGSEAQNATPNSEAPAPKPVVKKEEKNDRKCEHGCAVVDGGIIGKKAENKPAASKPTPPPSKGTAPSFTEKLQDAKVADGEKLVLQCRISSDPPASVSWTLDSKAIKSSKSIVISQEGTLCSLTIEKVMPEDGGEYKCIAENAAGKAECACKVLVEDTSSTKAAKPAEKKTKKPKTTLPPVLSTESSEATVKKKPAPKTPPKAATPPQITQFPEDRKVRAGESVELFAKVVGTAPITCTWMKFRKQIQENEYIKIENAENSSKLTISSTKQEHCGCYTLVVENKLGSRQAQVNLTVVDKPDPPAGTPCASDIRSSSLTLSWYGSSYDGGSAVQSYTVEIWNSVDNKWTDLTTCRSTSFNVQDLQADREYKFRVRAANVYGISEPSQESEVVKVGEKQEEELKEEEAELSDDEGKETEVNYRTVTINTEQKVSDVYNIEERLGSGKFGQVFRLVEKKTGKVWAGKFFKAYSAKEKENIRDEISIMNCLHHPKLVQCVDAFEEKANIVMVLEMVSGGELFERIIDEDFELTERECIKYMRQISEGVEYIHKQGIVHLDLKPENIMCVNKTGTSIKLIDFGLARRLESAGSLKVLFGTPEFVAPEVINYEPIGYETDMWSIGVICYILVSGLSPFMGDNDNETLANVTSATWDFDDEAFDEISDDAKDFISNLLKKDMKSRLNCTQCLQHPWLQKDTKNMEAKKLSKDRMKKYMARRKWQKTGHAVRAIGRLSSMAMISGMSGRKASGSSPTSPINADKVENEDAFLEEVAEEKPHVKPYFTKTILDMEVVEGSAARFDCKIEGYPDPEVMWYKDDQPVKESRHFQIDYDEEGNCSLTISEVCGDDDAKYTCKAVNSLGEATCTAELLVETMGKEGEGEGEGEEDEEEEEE
Description: inhibition of MLC kinase, in vitro enzyme test (32P phosphate incorporation). In kind it is biochemical, chicken (stomach). The settings on record: for IC50: 1 nM MLC kinase, 250 μM ATP, pH 7.2, 20 minutes at 30° C., read-out: inhibition of the protein kinases, MLC-kinase IC50; for ratio of IC50 C-kinase/IC50 MLC-kinase: selectivity factor calculated from the IC50 values.
Description: Inhibition of the enzyme MLC kinase (EC 3.6.1.3; kinase of the light myosin chain; myosin light-chain kinase).
The inhibition of MLC kinase was measured in an in vitro enzyme test.
The reaction was initiated by the addition of 1 nM MLC kinase. After incubation for 20 minutes at 30° C., the reaction was stopped with TCA and the samples then filtered off. The phosphate incorporation took place by means of Cerenkov counting of the filter.

Take “12-(3-dimethylaminopropyl)-6,7,12,13-tetrahydro-3(9)-hydroxy-9(3)-methoxy- 5,7-dioxo-5H-indolo[2,3-a]pyrrolo[3,4-c]carbazole [Example 2d]”: on protein kinase C, the half-inhibitory concentration (IC50) came to 38 nM. Also, in assay [1], the IC50 is 16 nM and the “ratio of IC50 C-kinase/IC50 MLC-kinase” value was 2.4.

Take `CCN(CC)CC(O)Cn1c2ccccc2c2c3c(c4c5ccccc5[nH]c4c21)C(=O)NC3=O` (racemic) [Example 6, (±)-12-(3-Diethylamino-2-hydroxy-1-propyl)-6,7,12,13-tetrahydro-5,7-dioxo-5H-indolo[2,3-a]pyrrolo[3,4-c]-carbazole]: at protein kinase C, the concentration for half-maximal inhibition (IC50) came to 500 nM. Moreover, in assay [1], the IC50 is 170 nM and the “ratio of IC50 C-kinase/IC50 MLC-kinase” value is reported as 2.9.

For the compound `CCN(CC)CC(O)Cn1c2ccccc2c2c3c(c4c5ccccc5n(C)c4c21)C(=O)NC3=O` (racemic) [Example 10a, (±)-12-(3-diethylamino-2-hydroxy-1-propyl)-6,7,12,13-tetrahydro-13-methyl-5,7-dioxo-5H-indolo-[2,3-a]pyrrolo[3,4-c]carbazole], the IC50 at protein kinase C was determined as 120 nM. Moreover, in assay [1], the IC50 turned out to be 370 nM and the “ratio of IC50 C-kinase/IC50 MLC-kinase” value was 0.3.

`COc1ccc2c(c1)c1c3c(c4c5ccccc5n(C)c4c1n2CC(O)CN(C)C)C(=O)NC3=O` (racemic) [Example 10b, (±)-13-(3-dimethylamino-2-hydroxy-1-propyl)-6,7,12,13-tetrahydro-3-methoxy-12-methyl-5,7-dioxo-5H-indolo[2,3-a]pyrrolo[3,4-c]carbazole]: the IC50 on protein kinase C came to 4 nM. In addition, in assay [1], the IC50 is 120 nM and the “ratio of IC50 C-kinase/IC50 MLC-kinase” value is recorded as 0.033.

Consider `Cn1c2ccccc2c2c3c(c4c5ccccc5n(CCC#N)c4c21)C(=O)NC3=O` [Example 1a, 12-(2-cyanoethyl)-6,7,12,13-tetrahydro-13-methyl-5,7-dioxo-5H-indolo[2,3-a]pyrrolo[3,4-c]carbazole], for which the IC50 at protein kinase C worked out at 38 nM. Further, in assay [1], the half-maximal inhibitory concentration (IC50) stood at 55 nM and the “ratio of IC50 C-kinase/IC50 MLC-kinase” value is recorded as 0.7.

On to `COc1ccc2c(c1)c1c3c(c4c5ccccc5n(CCC#N)c4c1n2C)C(=O)NC3=O` [Example 1b, 12-(2-cyanoethyl)-6,7,12,13-tetrahydro-3-methoxy-13-methyl-5,7-dioxo-5H-indolo[2,3-a]pyrrolo[3,4-c]-carbazole], for which the 50% inhibitory concentration (IC50) at protein kinase C was 35 nM. For the same compound, in assay [1], the IC50 is 49 nM and the “ratio of IC50 C-kinase/IC50 MLC-kinase” value is reported as 0.7.

Consider `COc1ccc2c(c1)c1c3c(c4c5cc(OC)ccc5n(CCC#N)c4c1n2C)C(=O)NC3=O` [Example 1c, 12-(2-cyanoethyl)-6,7,12,13-tetrahydro-3,9-dimethoxy-13-methyl-5,7-dioxo-5H-indolo[2,3-a]pyrrolo[3,4-c]-carbazole], for which the 50% inhibitory concentration (IC50) at protein kinase C amounted to 19 nM. For the same compound, in assay [1], the IC50 worked out at 180 nM and the “ratio of IC50 C-kinase/IC50 MLC-kinase” value was 0.1.

Turning to `CC(CC#N)n1c2ccccc2c2c3c(c4c5ccccc5n(C)c4c21)C(=O)NC3=O` (stereo not drawn) [Example 1d, 12-(3-cyano-2-propyl)-6,7,12,13-tetrahydro-13-methyl-5,7-dioxo-5H-indolo[2,3-a]pyrrolo[3,4-c]carbazole], the concentration for half-maximal inhibition (IC50) on protein kinase C was found to be 35 nM. In assay [1], the 50% inhibitory concentration (IC50) came out at 62 nM and the “ratio of IC50 C-kinase/IC50 MLC-kinase” value is recorded as 0.6.

Take `Cn1c2ccccc2c2c3c(c4c5ccccc5n(CC#N)c4c21)C(=O)NC3=O` [Example 1e, 12-cyanomethyl-6,7,12,13-tetrahydro-13-methyl-5,7-dioxo-5H-indolo[2,3-a]pyrrolo[3,4-c]carbazole]: the IC50 at protein kinase C turned out to be 14 nM; in assay [1] it was 17 nM. Moreover, in assay [1], the “ratio of IC50 C-kinase/IC50 MLC-kinase” value was 0.8.

Consider `Cn1c2ccccc2c2c3c(c4c5ccccc5n(CCCC#N)c4c21)C(=O)NC3=O` [Example 1g, 12-(3-cyanopropyl)-6,7,12,13-tetrahydro-13-methyl-5,7-dioxo-5H-indolo[2,3-a]pyrrolo[3,4-c]carbazole], for which the IC50 on protein kinase C came out at 36 nM. Also, in assay [1], the IC50 amounted to 22 nM and the “ratio of IC50 C-kinase/IC50 MLC-kinase” value is recorded as 1.6.

With `COc1ccc2c(c1)c1c3c(c4c5ccccc5n(CCCC#N)c4c1n2C)C(=O)NC3=O` [Example 1h, 12-(3-cyanopropyl)-6,7,12,13-tetrahydro-3-methoxy-13-methyl-5,7-dioxo-5H-indolo[2,3-a]pyrrolo[3,4-c]-carbazole], the IC50 (at protein kinase C; in assay [1]) was 24 nM each time. The “ratio of IC50 C-kinase/IC50 MLC-kinase” value in assay [1] is reported as 1.

Consider `CN(C)CCCn1c2ccccc2c2c3c(c4c5ccccc5n(C)c4c21)C(=O)NC3=O` [Example 1j, 12-(3-dimethylaminopropyl)-6,7,12,13-tetrahydro-13-methyl-5,7-dioxo-5H-indolo[2,3-a]pyrrolo[3,4-c]-carbazole], for which the IC50 on protein kinase C was determined as 500 nM. Also, in assay [1], the IC50 stood at 45 nM and the “ratio of IC50 C-kinase/IC50 MLC-kinase” value is reported as 11.1.

`COc1ccc2c(c1)c1c3c(c4c5ccccc5n(C)c4c1n2CCCN(C)C)C(=O)NC3=O` [Example 1k, 13-(3-Dimethylaminopropyl)-6,7,12,13-tetrahydro-3-methoxy-12-methyl-5,1-dioxo-5H-indolo[2,3-a]pyrrolo-[3,4-c]carbazole]: the half-inhibitory concentration (IC50) on protein kinase C stood at 440 nM. Further, in assay [1], the IC50 was 61 nM and the “ratio of IC50 C-kinase/IC50 MLC-kinase” value is 7.2.

On to `Cn1c2ccccc2c2c3c(c4c5ccccc5n(CCCN=[N+]=[N-])c4c21)C(=O)NC3=O` [Example 1l, 12-(3-azidopropyl)-6,7,12,13-tetrahydro-13-methyl-5,7-dioxo-5H-indolo[2,3-a]pyrrolo[3,4-c]carbazole], for which the 50% inhibitory concentration (IC50) on protein kinase C was 50 nM; in assay [1] it was 130 nM. The “ratio of IC50 C-kinase/IC50 MLC-kinase” value in assay [1] is reported as 0.4.

On to `COc1ccc2c(c1)c1c3c(c4c5cc(Cl)ccc5n(CCC#N)c4c1n2C)C(=O)NC3=O` [Example 1n, 3-chloro-13-(2-cyanoethyl)-6,7,12,13-tetrahydro-9-methoxy-12-methyl-5,7-dioxo-5H-indolo[2,3-a]pyrrolo-[3,4-a]carbazole], for which, on protein kinase C, the IC50 came to 20 nM. For the same compound, in assay [1], the IC50 is 32 nM and the “ratio of IC50 C-kinase/IC50 MLC-kinase” value is 0.6.

For the compound `COc1cc2c3c4c(c5c6ccccc6n(C)c5c3n(CCC#N)c2cc1OC)C(=O)NC4=O` [Example 1o, 13-(2-cyanoethyl)-6,7,12,13-tetrahydro-2,3-dimethoxy-12-methyl-5,7-dioxo-5H-1-indolo[2,3-a]pyrrolo-[3,4-c]carbazole], the half-maximal inhibitory concentration (IC50) on protein kinase C was 6.7 nM. In addition, in assay [1], the IC50 came to 17 nM and the “ratio of IC50 C-kinase/IC50 MLC-kinase” value is 0.4.

As to `COc1ccc2c(c1)c1c3c(c4c5ccccc5n(C)c4c1n2CCCC#N)C(=O)NC3=O` [Example 1q, 13-(3-cyanopropyl)-6,7,12,13-tetrahydro-3-methoxy-12-methyl-5,7-dioxo-5H-indolo[2,3-a]pyrrolo[3,4-c]-carbazole], the concentration for half-maximal inhibition (IC50) at protein kinase C was found to be 4.7 nM. In addition, in assay [1], the IC50 was found to be 32 nM and the “ratio of IC50 C-kinase/IC50 MLC-kinase” value is given as 0.15.

Turning to `COc1ccc2c(c1)c1c3c(c4c5cc(OC)ccc5n(CCCC#N)c4c1n2C)C(=O)NC3=O` [Example 1r, 12-(3-cyanopropyl)-6,7,12,13-tetrahydro-3,9-dimethoxy-13-methyl-5,7-dioxo-5H-indolo[2,3-a]pyrrolo-[3,4-c]carbazole], the half-maximal inhibitory concentration (IC50) at protein kinase C amounted to 17 nM; in assay [1], 29 nM. For the same compound, the “ratio of IC50 C-kinase/IC50 MLC-kinase” value in assay [1] is listed as 0.6.

As for `COc1ccc2c(c1)c1c3c(c4c5cc(OC)c(OC)cc5n(CCC#N)c4c1n2C)C(=O)NC3=O` [Example 1s, 13-(2-cyanoethyl)-6,7,12,13-tetrahydro-2,3,9-trimethoxy-12-methyl-5,7-dioxo-5H-indolo[2,3-a]pyrrolo-[3,4-c]carbazole], the values for the IC50 (at protein kinase C; in assay [1]) were 24 nM and 33 nM, respectively. Further, in assay [1], the “ratio of IC50 C-kinase/IC50 MLC-kinase” value is recorded as 0.7.

As to `COc1ccc2c3c4c(c5c6ccccc6n(C)c5c3n(CCC#N)c2c1)C(=O)NC4=O` [Example 1u, 13-(2-cyanoethyl)-6,7,12,13-tetrahydro-2-methoxy-12-methyl-5,7-dioxo-5H-indolo[2,3-a]pyrrolo[3,4-c]-carbazole], on protein kinase C, the half-maximal inhibitory concentration (IC50) stood at 4700 nM. In assay [1], the 50% inhibitory concentration (IC50) came out at 540 nM and the “ratio of IC50 C-kinase/IC50 MLC-kinase” value was 8.7.

As to `CN(C)CCn1c2ccccc2c2c3c(c4c5ccccc5n(C)c4c21)C(=O)NC3=O` [Example 1x, 12-(2-dimethylaminoethyl)-6,7,12,13-tetrahydro-13-methyl-5,7-dioxo-5H-indolo[2,3-a]pyrrolo[3,4-c]carbazole], at protein kinase C, the IC50 is 52 nM. In assay [1], the IC50 amounted to 7.2 nM and the “ratio of IC50 C-kinase/IC50 MLC-kinase” value is recorded as 7.2.

In the case of `COc1ccc2c(c1)c1c3c(c4c5ccccc5n(CCCN(C)C)c4c1n2C)C(=O)NC3=O` [Example 1y, 12-(3-dimethylaminopropyl)-6,7,12,13-tetrahydro-3-methoxy-13-methyl-5,7-dioxo-5H-indolo[2,3-a]pyrrolo-[3,4-c]carbazole], the values for the IC50 (at protein kinase C; in assay [1]) were 31 nM and 7.6 nM, respectively. Besides, in assay [1], the “ratio of IC50 C-kinase/IC50 MLC-kinase” value is reported as 4.1.

In the case of `COc1cc2c3c4c(c5c6ccccc6n(C)c5c3n(CCCN(C)C)c2cc1OC)C(=O)NC4=O` [Example 1z, 13-(3-dimethylaminopropyl)-6,7,12,13-tetrahydro-2,3-dimethoxy-12-methyl-5,7-dioxo-5H-indolo[2,3-a]-pyrrolo[3,4-c]carbazole], the IC50 at protein kinase C was 26 nM. In assay [1], the IC50 was 20 nM and the “ratio of IC50 C-kinase/IC50 MLC-kinase” value is recorded as 1.3.

Take `Cn1c2ccccc2c2c3c(c4c5cc(O)ccc5n(CCC#N)c4c21)C(=O)NC3=O` [Example 2, 13-(2-Cyanoethyl)-6,7,12,13-tetrahydro-3-hydroxy-12-methyl-5,7-dioxo-5H-indolo[2,3-a]pyrrolo[3,4-c]-carbazole]: at protein kinase C, the IC50 came to 24 nM. In assay [1], the 50% inhibitory concentration (IC50) stood at 19 nM and the “ratio of IC50 C-kinase/IC50 MLC-kinase” value is recorded as 1.3.
